# Data reported in publication PMC9503977, “Isolation, Characterization and Pharmacological Investigations of a New Phenolic Compound along with Four Others Firstly Reported Phytochemicals from Glycosmis cyanocarpa (Blume) Spreng” (Molecules, 2022).
# Entries after “also recorded” stand apart in the source; their conditions may differ.
# Tests used:
# Salmonella typhi = test: Disc diffusion antibacterial assay; format: cell-based; settings: Salmonella enterica, read-out: Diameter of Zone of Inhibition
# Staphylococcus aureus = test: Disc diffusion antibacterial assay; settings: read-out: Diameter of Zone of Inhibition
# [1] = DPPH free radical scavenging assay; format: biochemical; settings: for DPPH scavenging activity: at 200 μg/mL; for IC50, DPPH free radical scavenging: from linear regression equation, 200 to 0.78125 μg/mL, 1 h in dark
# Procedure: To evaluate the free radical scavenging abilities of isolated phytochemicals on 1, 1-diphenyl-2-picrylhydrazyl, 2.0 mL of methanol solution of the compounds at serially diluted various concentrations (200 μg/mL to 0.78125 μg/mL) were mixed with 3.0 mL of a DPPH methanol solution (20 μg/mL) (DPPH). The mixture was kept in dark for 1 h. The antioxidant properties were assessed by comparing the decolorizing of a purple DPPH methanol solution by the compounds to that of butylated hydroxy anisole (BHA). (1) % Inhibition of free radical DPPH=1−Absorbance ofsample/Absorbance of the control reaction×100
# Sarcina lutea = test: Disc diffusion antibacterial assay; settings: Micrococcus luteus, read-out: Diameter of Zone of Inhibition
# [2] = Brine shrimp lethality bioassay (cytotoxicity); settings: in vivo, other: exposure of nauplii in simulated seawater, pH 8, from linear regression, 400–0.78125 μg/mL
# Procedure: The brine shrimp lethality bioassay was conducted to evaluate the cytotoxic potential of the isolated pure compounds. An amount of 38 g of NaCl salt was dissolved in 1000 mL of distilled water to simulate seawater, along with NaOH to keep the pH constant (8.0). Brine shrimp eggs were hatched in artificial seawater to produce nauplii. Isolated compounds were dissolved in DMSO then diluted with simulated seawater into a series of concentrations (400–0.78125 μg/mL). As the reference standard, vincristine sulfate was employed at various doses (400–0.78125 μg/mL), and DMSO served as the negative control. The nauplii were counted visually, and then 5 mL of simulated saltwater was added to vials of the mixture at room temperature. (2) Mortality%=Number of nauplii death/Number of nauplii taken×100
# Escherichia coli = test: Disc diffusion antibacterial assay; settings: read-out: Diameter of Zone of Inhibition
# [3] = tested on: two Gram-positive and four Gram-negative bacteria; test: Disc diffusion antibacterial assay, whole panel; format: cell-based; settings: 100 μg/disc
# Shigella flexneri = test: microbe, parasite or virus in culture; settings: read-out: Diameter of Zone of Inhibition
# Klebsiella spp. = test: Disc diffusion antibacterial assay; settings: read-out: Diameter of Zone of Inhibition
compound,measurement,setting,value
"COc1cc(CC(C)CO)ccc1O (stereo not drawn) [Compound 1, 4-(3-hydroxy-2-methylpropyl)-2-methoxyphenol]",zone of inhibition at 100 µg/disc,Salmonella typhi,18 mm
same,zone of inhibition at 100 µg/disc,Staphylococcus aureus,21 mm
same,DPPH scavenging activity,[1],92.96%
same,"IC50, DPPH free radical scavenging",[1],9.97 µg/mL
same,zone of inhibition at 100 µg/disc,Sarcina lutea,20 mm
same,LC50,[2],1.08 µg/mL
same,zone of inhibition at 100 µg/disc,Escherichia coli,19 mm
same,antibacterial spectrum (in words),[3],broad-spectrum antibacterial activity
"CC[C@]1(O)C[C@H]2CN(CCc3c([nH]c4ccccc34)[C@@](C(=O)OC)(c3cc4c(cc3OC)N(C=O)[C@H]3[C@@](O)(C(=O)OC)[C@H](OC(C)=O)[C@]5(CC)C=CCN6CC[C@]43[C@@H]65)C2)C1 [VS, Vincristine Sulphate]",LC50,[2],0.91 µg/mL
CN[C@H](CC(C)C)C(=O)N[C@H]1C(=O)N[C@@H](CC(N)=O)C(=O)N[C@H]2C(=O)N[C@H]3C(=O)N[C@H](C(=O)N[C@H](C(=O)O)c4cc(O)cc(O)c4-c4cc3ccc4O)[C@H](O)c3ccc(c(Cl)c3)Oc3cc2cc(c3O[C@@H]2O[C@H](CO)[C@@H](O)[C@H](O)[C@H]2O[C@H]2C[C@](C)(N)[C@H](O)[C@H](C)O2)Oc2ccc(cc2Cl)[C@H]1O [Vancomycin],zone of inhibition at 100 µg/disc,Salmonella typhi,39 mm
same,zone of inhibition at 100 µg/disc,Shigella flexneri,38 mm
same,zone of inhibition at 100 µg/disc,Staphylococcus aureus,41 mm
same,zone of inhibition at 100 µg/disc,Sarcina lutea,42 mm
same,zone of inhibition at 100 µg/disc,Klebsiella spp.,43 mm
same,zone of inhibition at 100 µg/disc,Escherichia coli,42 mm
CC[C@H]1OC(=O)[C@H](C)[C@@H](O[C@H]2C[C@@](C)(OC)[C@@H](O)[C@H](C)O2)[C@H](C)[C@@H](O[C@@H]2O[C@H](C)C[C@H](N(C)C)[C@H]2O)[C@](C)(O)C[C@@H](C)CN(C)[C@H](C)[C@@H](O)[C@]1(C)O [Azithromycin],zone of inhibition at 100 µg/disc,Salmonella typhi,34 mm
same,zone of inhibition at 100 µg/disc,Shigella flexneri,41 mm
same,zone of inhibition at 100 µg/disc,Staphylococcus aureus,39 mm
same,zone of inhibition at 100 µg/disc,Sarcina lutea,40 mm
same,zone of inhibition at 100 µg/disc,Klebsiella spp.,37 mm
same,zone of inhibition at 100 µg/disc,Escherichia coli,40 mm
"CC[C@H](/C=C/[C@@H](C)[C@H]1CC[C@H]2[C@@H]3CC=C4C[C@@H](O)CC[C@]4(C)[C@H]3CC[C@]12C)C(C)C [Compound 4, Stigmasterol]",zone of inhibition at 100 µg/disc,Staphylococcus aureus,16 mm
same,zone of inhibition at 100 µg/disc,Sarcina lutea,17 mm
same,LC50,[2],1.92 µg/mL
same,antibacterial spectrum (in words),[3],inhibited only Gram-positive bacteria
CN(C)[C@@H]1C(O)=C(C(N)=O)C(=O)[C@@]2(O)C(O)=C3C(=O)c4c(O)cccc4[C@@](C)(O)[C@H]3C[C@@H]12 [Tetracycline],zone of inhibition at 100 µg/disc,Salmonella typhi,41 mm
same,zone of inhibition at 100 µg/disc,Shigella flexneri,38 mm
same,zone of inhibition at 100 µg/disc,Staphylococcus aureus,37 mm
same,zone of inhibition at 100 µg/disc,Sarcina lutea,38 mm
same,zone of inhibition at 100 µg/disc,Klebsiella spp.,39 mm
same,zone of inhibition at 100 µg/disc,Escherichia coli,41 mm
"Cc1c[nH]c2ccccc12 [Compound 2, 3-methyl-1H-indole]",zone of inhibition at 100 µg/disc,Staphylococcus aureus,17 mm
same,"IC50, DPPH free radical scavenging",[1],12.37 µg/mL
same,zone of inhibition at 100 µg/disc,Sarcina lutea,19 mm
same,LC50,[2],1.02 µg/mL
same,antibacterial spectrum (in words),[3],the most active against Staphylococcus aureus; also recorded: inhibited only Gram-positive bacteria
C[C@H]1COc2c(N3CCN(C)CC3)c(F)cc3c(=O)c(C(=O)O)cn1c23 [Levofloxacin],zone of inhibition at 100 µg/disc,Salmonella typhi,36 mm
same,zone of inhibition at 100 µg/disc,Shigella flexneri,41 mm
same,zone of inhibition at 100 µg/disc,Staphylococcus aureus,40 mm
same,zone of inhibition at 100 µg/disc,Sarcina lutea,39 mm
same,zone of inhibition at 100 µg/disc,Klebsiella spp.,38 mm
same,zone of inhibition at 100 µg/disc,Escherichia coli,42 mm
"Cc1cc(C(C)(C)C)c(O)c(C(C)(C)C)c1 [BHT, Butylated Hydroxytoluene]",DPPH scavenging activity,[1],96.48%
same,"IC50, DPPH free radical scavenging",[1],6.06 µg/mL
"CC[C@H](CC[C@@H](C)[C@H]1CC[C@H]2[C@@H]3CC=C4C[C@@H](O)CC[C@]4(C)[C@H]3CC[C@]12C)C(C)C [Compound 5, β-sitosterol]",zone of inhibition at 100 µg/disc,Staphylococcus aureus,17 mm
same,zone of inhibition at 100 µg/disc,Sarcina lutea,15 mm
same,LC50,[2],1.37 µg/mL
same,antibacterial spectrum (in words),[3],inhibited only Gram-positive bacteria
